Structures can show the parent of a compound that is named as a salt.
How the values were obtained:
[1] = biological target: 5-HT1 receptor; test: Affinity for the 5-HT1 receptor (3H-serotonin binding, calf hippocampus membranes); settings: calf hippocampus membrane preparations
Protocol: The values indicated are data which were determined from receptor binding studies using calf hippocampus membrane preparations. The radiolabelled ligand used for this purpose was ^3 H-serotonin. In the binding tests under 1) and 2), IC50 values are determined which indicate at which concentration of test substance 50% of the binding of the radioligand is displaced. Taking into account the dissociation constants and the concentration of radioligand, the inhibition constants Ki are calculated from this.

[2] = biological target: T1, 5-HT1A receptors (Bos taurus, UniProt F6Q2H9); test: Affinity for the 5-HT1A receptor (3H-ipsapirone binding, calf hippocampus membranes)
T1 construct: measured in calf hippocampus membranes; from tissue; host or cells: calf hippocampus membranes
T1 sequence (F6Q2H9 1-422): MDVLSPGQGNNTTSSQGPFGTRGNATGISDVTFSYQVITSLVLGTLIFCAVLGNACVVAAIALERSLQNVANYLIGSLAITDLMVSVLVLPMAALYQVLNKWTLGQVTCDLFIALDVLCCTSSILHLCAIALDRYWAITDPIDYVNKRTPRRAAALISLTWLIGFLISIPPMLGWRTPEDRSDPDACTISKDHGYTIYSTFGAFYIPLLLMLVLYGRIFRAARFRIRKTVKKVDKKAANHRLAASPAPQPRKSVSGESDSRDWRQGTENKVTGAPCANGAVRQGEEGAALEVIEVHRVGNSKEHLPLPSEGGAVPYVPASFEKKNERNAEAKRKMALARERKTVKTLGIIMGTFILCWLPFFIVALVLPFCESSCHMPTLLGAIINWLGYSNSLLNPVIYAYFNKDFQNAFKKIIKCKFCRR
Protocol: 2.) Affinity for the 5-HT1A receptor [W. U. Dompert et al., Naunyn-Schmiedeberg's Arch Pharmacol. (1985), 328, 467-470].
In this test, the binding of ^3 H-ipsapirone to 5-HT1A receptors is measured in calf hippocampus membranes.
In the binding tests under 1) and 2), IC50 values are determined which indicate at which concentration of test substance 50% of the binding of the radioligand is displaced. Taking into account the dissociation constants and the concentration of radioligand, the inhibition constants Ki are calculated from this.

[3] = test system: permanent focal cerebral ischaemia (MCA-O); test: Permanent focal cerebral ischaemia (middle cerebral artery occlusion, MCA-O) in rats; assay type: in vivo; settings: rat, continuous infusion 4 hours after occlusion, assessed 7 days after operation
From the text: Animal model: permanent focal cerebral ischaemia ("middle cerebral artery occlusion"=MCA-O). MCA occlusion in rodents is a widely accepted animal model of stroke. Reference: Bederson, J. B. et al., Stroke, 17:472-476 (1986).
In order to produce permanent focal cerebral ischaemia, the left medial cerebral artery in rats is occluded by electrocoagulation. The resulting infarct volume in cortical (subcortical) regions which are supplied by the medial cerebral artery is used as a measure of the extent of the stroke-induced neuronal damage. Administration of substance: after occlusion as a continuous i.v. infusion (4 hours) of the test substance, beginning directly after operation. The animals are sacrificed for assessment 7 days after operation.

SMILES | Ki [1] | Ki [2] | % Reduction of the infarct volume ([3]; 0.001 mg/kg i.v.) | % Reduction of the infarct volume ([3]; 0.01 mg/kg i.v.) | % Reduction of the infarct volume ([3]; 0.1 mg/kg i.v.) | % Reduction of the infarct volume ([3]; 0.003 mg/kg i.v.)
CC(C)(Cl)COc1cccc2c1OC(CNCCCCN1C(=O)c3ccccc3S1(=O)=O)CC2 (racemic) [Example 4] | 2.8 nM | – | – | – | – | –
CC1(C)Cc2ccc3c(c2O1)OC(CNCCCCN1C(=O)c2ccccc2S1(=O)=O)CC3 (racemic) [Example 5] | 0.5 nM | – | – | – | – | –
CC(C)Oc1cccc2c1OC(CNCCCCN1C(=O)c3ccccc3S1(=O)=O)CC2 (single isomer, unassigned) [Example 2] | – | 0.5 nM | 36% | 48% | 32% | –
CC(C)(Cl)COc1cccc2c1OC(CNCCCCN1C(=O)c3ccccc3S1(=O)=O)CC2 (single isomer, unassigned) [Example 3] | – | 1.8 nM | 37% | 47% | – | 34%
CC1(C)Cc2ccc3c(c2O1)OC(CNCCCCN1C(=O)c2ccccc2S1(=O)=O)CC3 (single isomer, unassigned) [Example 6] | – | 0.9 nM | 41% | 41% | 38% | –
CC(C)Oc1cccc2c1OC(CNCCCCN1C(=O)c3ccccc3S1(=O)=O)CC2 (stereo not drawn) [Example 1, 2-(N-(4-(1,1-Dioxido-3-oxo-2,3-dihydro-benzisothiazol-2-yl)butyl)amino)methyl-8-isopropoxy-chroman oxalate] | 1.1 nM | – | – | – | – | –

— US5942529A, “Benzisothiazolyl-substituted aminomethylchromans” (Bayer Aktiengesellschaft, priority 1995, dated 1999)
